Test results as given in BindingDB's records for doi:10.7270/Q2765CSM (Burnham Center For Chemical Genomics, 2011).

Target: T1, Hexokinase-1 (Homo sapiens, UniProt P19367)
T1 sequence (P19367 whole entry): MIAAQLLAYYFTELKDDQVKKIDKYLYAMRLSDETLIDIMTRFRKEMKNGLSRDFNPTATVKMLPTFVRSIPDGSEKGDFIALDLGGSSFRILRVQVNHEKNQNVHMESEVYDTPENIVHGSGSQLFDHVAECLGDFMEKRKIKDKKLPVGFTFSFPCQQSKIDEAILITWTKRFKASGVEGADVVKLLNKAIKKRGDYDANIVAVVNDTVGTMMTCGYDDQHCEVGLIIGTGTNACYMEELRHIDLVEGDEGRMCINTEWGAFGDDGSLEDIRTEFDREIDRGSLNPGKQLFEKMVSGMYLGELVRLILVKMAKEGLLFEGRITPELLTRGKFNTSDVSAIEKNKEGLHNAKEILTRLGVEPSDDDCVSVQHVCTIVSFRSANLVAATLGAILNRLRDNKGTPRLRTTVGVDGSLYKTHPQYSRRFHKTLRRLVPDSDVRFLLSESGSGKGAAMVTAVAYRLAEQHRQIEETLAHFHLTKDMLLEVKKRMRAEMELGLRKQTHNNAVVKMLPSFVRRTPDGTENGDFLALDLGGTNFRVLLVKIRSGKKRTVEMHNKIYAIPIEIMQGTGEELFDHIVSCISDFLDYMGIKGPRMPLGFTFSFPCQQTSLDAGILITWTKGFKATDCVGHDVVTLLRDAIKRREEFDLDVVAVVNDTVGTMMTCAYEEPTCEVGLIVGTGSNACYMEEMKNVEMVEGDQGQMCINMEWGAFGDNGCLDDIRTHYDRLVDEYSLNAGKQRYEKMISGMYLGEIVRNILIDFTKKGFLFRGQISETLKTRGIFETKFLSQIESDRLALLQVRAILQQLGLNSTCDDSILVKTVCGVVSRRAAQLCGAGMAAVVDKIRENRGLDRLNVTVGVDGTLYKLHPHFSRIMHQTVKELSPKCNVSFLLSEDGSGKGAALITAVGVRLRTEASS
Assay: hexokinase 1 activators, dose response, selectivity assay for HKDC1 activator project, biochemical (AID 504762)

Row | Structure (SMILES) | EC50
1 | CC(N=Nc1nc2ccccc2o1)c1cc2ccccc2cn1 (centres undefined) | > 80 µM
2 | CCCOC1=CC(=O)C(C=NNC(=S)Nc2ccccc2[N+](=O)[O-])C=C1 (centres undefined) [1-(2-nitrophenyl)-3-[[(E)-(6-oxo-4-propoxy-1-cyclohexa-2,4-dienylidene)methyl]amino]thiourea] | > 80 µM
3 | Cc1[nH]n(-c2ccccc2)c(=O)c1CN=Nc1nncc(-c2ccccc2)n1 [(4E)-5-methyl-2-phenyl-4-[[(5-phenyl-1,2,4-triazin-3-yl)hydrazo]methylidene]-3-pyrazolone] | > 80 µM
4 | Cc1ccc2c(C)c3ccc4ccccc4c3c[n+]2c1 [MLS002701915] | 5.2 µM
5 | CC(C)(C)c1nnc(N=NCc2cc(Br)ccc2O)n(N)c1=O [4-azanyl-3-[2-[(E)-(3-bromanyl-6-oxidanylidene-cyclohexa-2,4-dien-1-ylidene)methyl]hydrazinyl]-6-tert-butyl-1,2,4-triazin-5-one] | > 80 µM
6 | Nn1cnnc1N=NCc1cc(Br)cc(Br)c1O | 42.3 µM

Now from value to molecule:

Row | EC50 | Structure (SMILES)
7 | 34.1 µM | CC(=O)Oc1cccc2c(O)c3c(c(O)c12)CC=CC3OC(C)=O (centres undefined) [SMR001574207]
8 | 30.8 µM | Oc1c(Cl)c(N=Cc2cccnc2)c(O)c2ccccc12 [MLS001195521]
9 | 37.1 µM | O=C1C(=C2C(=O)c3ccccc3C2=O)Nc2ccccc21 [MLS000071738]
